From paper PMC7956476, “Quinoline Functionalized Schiff Base Silver (I) Complexes: Interactions with Biomolecules and In Vitro Cytotoxicity, Antioxidant and Antimicrobial Activities” (Molecules, 2021)

Legend:
[1] = tested on: Escherichia coli ATCC 25922; experiment: Minimum inhibitory concentration (MIC), spotting on Müeller–Hinton agar; assay type: cell-based; settings: Gram − Ve; E. coli; 37 °C, 18 h
[2] = tested on: Salmonella typhimurium ATCC 14026; experiment: as above; assay type: cell-based; settings: Gram − Ve; S. typhi; 37 °C, 18 h
[3] = tested on: Staphylococcus aureus ATCC 25923; experiment: as above; assay type: cell-based; settings: Gram + Ve; S. aureus; 37 °C, 18 h
[4] = tested on: Staphylococcus aureus ATCC 700699 (methicillin-resistant); experiment: as above; assay type: cell-based; settings: Gram + Ve; methicillin-resistant S. aureus; 37 °C, 18 h
[5] = tested on: breast cancer cell line (MDA-MB231); experiment: Cytotoxicity assay (CellTiter 96 AQueous One Solution, 72 h); assay type: cell-based, human; settings: EC50 in HEK293 over EC50 in MDA-MB231
Description: (§1) In vitro cell viability with cultured cells is a method commonly used for cytotoxicity activities of potential anticancer compounds due to reduced cost speed, and potential for automation, and tests using human cells other than some in vivo animal tests. […] The cytotoxicity assay was conducted as per the standard method and as described by Abrahams et al. 2018 [111]. […] The plate was then incubated for 72 h at 37 °C and 5% CO2. To each well, 20 µL CellTiter 96 AQueous One Solution (Promega, Madison, WI, USA) was added and the plates were incubated for 4 h as previously described. Thereafter, absorbance was read at 490 nm on a multiplate reader (Molecular Devices, San Jose, CA, USA). […] The values recorded are averages of at least three separate experiments (n = 3).

[6] = tested on: neuronal cancer cell line (SHSY5Y); experiment: as above; assay type: cell-based, human; settings: EC50 in HEK293 over EC50 in SHSY5Y
Description: as §1

[7] = tested on: Pseudomonas aeruginosa ATCC 27853; experiment: Minimum inhibitory concentration (MIC), spotting on Müeller–Hinton agar; assay type: cell-based; settings: Gram − Ve; P. aeruginosa; 37 °C, 18 h

| SMILES | Minimum inhibitory concentration, EC [1] | Minimum inhibitory concentration, ST [2] | Minimum inhibitory concentration, SA [3] | Minimum inhibitory concentration, MRSA [4] | Selectivity Index (SI) MDA-MB231 [5] | Selectivity Index (SI) SHSY5Y [6] | Minimum inhibitory concentration, PA [7] |
| --- | --- | --- | --- | --- | --- | --- | --- |
| Cc1ccc(N=Cc2ccc3ccccc3n2)cc1.Cc1ccc(N=Cc2ccc3ccccc3n2)cc1.[Ag+].[O-][Cl+3]([O-])([O-])[O-] [Complex Q9, [Ag(L4)2]ClO4] | 12.5 µg/mL | 50 µg/mL | 50 µg/mL | 1000 µg/mL | 2.57 | 2.12 | – |
| [Ag+].[O-][Cl+3]([O-])([O-])[O-].c1ccc2nc(-c3nc4ccccc4s3)ccc2c1.c1ccc2nc(-c3nc4ccccc4s3)ccc2c1 [Complex Q7, [Ag(L2)2]ClO4] | 25 µg/mL | 50 µg/mL | 1.6 µg/mL | 50 µg/mL | 2.40 | 3.30 | 0.2 µg/mL |
